Laboratory results taken from PMC12503909, “C1′‐Branched Acyclic Nucleoside Phosphonates as Inhibitors of Plasmodium Falciparum 6‐Oxopurine Phosphoribosyltransferase” (Chemmedchem, 2025).

What was measured:
P. falciparum D6 = experiment: In vitro antimalarial activity, 3H-hypoxanthine growth inhibition assay, D6 line; format: cell-based, Plasmodium falciparum; conditions: Pf infected erythrocytes, D6 strain sensitive to chloroquine, 96 h, mean ± SD of three independent experiments
Experimental: (§1) The IC50 values were determined as previously described.^[ [32] ^] P. falciparum D6 (Sierra‐Leone) laboratory line, sensitive to most antimalarial drugs, and W2 (Indochina) line, resistant to chloroquine and pyrimethamine, were maintained as previously described^[ [33] ^] in medium consisted of 10.4 g L^−1 RPMI‐1640‐LPLF powder (Gibco BRL), 5.97 g L^−1 HEPES buffer (MP Biomedicals, USA), 2.0 g L^−1 d‐glucose (BDH chemicals, Australia), 0.05 g L^−1 hypoxanthine (Sigma, USA) and 40 mg L^−1 gentamycin (Pfizer, Australia), supplemented with 0.21% NaHCO3 and 10% human plasma prior to use. Red blood cells O (Rh+) type were obtained from the Australian Red Cross Blood Service and added to 4% haematocrit. Cultures were routinely synchronized using D‐sorbitol.^[ [34] ^] To evaluate the antimalarial activity of the ANPs, the ^3H‐hypoxanthine growth inhibition assay was utilized, where the uptake of ^3H‐hypoxanthine by malaria parasites is used as a surrogate marker for parasite growth. For these assays, stock solutions of the tested compounds were made to concentrations of 20–40 mM in DMSO or water and subsequently diluted in hypoxanthine‐free complete media prior to assay. The assays (in 96‐well plate format) were initiated when most parasites (> 90%) were at the early trophozoite (ring) stage. Parasite cultures (100 μL per well) at 0.5% initial parasitemia and 2% hematocrit in hypoxanthine‐free RPMI1640‐LPLF medium were exposed to ten twofold serial dilutions of the compounds and chloroquine (reference drug) for 96 h, with ^3H‐hypoxanthine (0.2 μCi well^−1) added ≈48 h after the beginning of the experiment.
(§2) The ^3H‐hypoxanthine incorporation data were analyzed, and sigmoidal growth inhibition curves were produced by nonlinear regression analysis of the ^3H‐hypoxanthine incorporation data versus log‐transformed concentrations of the compounds using Graphpad Prism V5.0 software (GraphPad Software Inc. USA). […] The IC50 values were based on three independent experiments, with mean ± SD calculated.

P. falciparum W2 = experiment: In vitro antimalarial activity, 3H-hypoxanthine growth inhibition assay, W2 line; format: cell-based, Plasmodium falciparum; conditions: Pf infected erythrocytes, W2 strain resistant to chloroquine, 96 h, mean ± SD of three independent experiments
Experimental: as §1, §2

HL-60 = experiment: Cytotoxicity of the prodrug in human cells (CellTiter-Glo 2.0), HL-60; format: cell-based; conditions: 10 µM, versus untreated control; mean ± SD
Experimental: (§3) Compound cytotoxicity was evaluated in nontumor human dermal fibroblasts (NHDF), CCRF‐CEM, HL‐60, HeLa, and HepG2 cells. All cell lines were obtained from ATCC (Manassas, VA, USA). The cytotoxicity was assayed using CellTiter‐Glo 2.0 detection reagent (Promega, Madison, USA) according to the manufacturer's protocol. The concentration of prodrug used in this assay was 10 μM. This concentration was chosen as it would more accurately reflect the expected concentration in an in vitro assessment.

CCRF-CEM = experiment: Cytotoxicity of the prodrug in human cells (CellTiter-Glo 2.0), CCRF-CEM; format: cell-based; conditions: 10 µM, versus untreated control; mean ± SD
Experimental: as §3

HeLa = experiment: Cytotoxicity of the prodrug in human cells (CellTiter-Glo 2.0), HeLa; format: cell-based; conditions: 10 µM, versus untreated control; mean ± SD
Experimental: as §3

HepG2 = experiment: Cytotoxicity of the prodrug in human cells (CellTiter-Glo 2.0), HepG2; format: cell-based; conditions: 10 µM, versus untreated control; mean ± SD
Experimental: as §3

NHDF = experiment: Cytotoxicity of the prodrug in human cells (CellTiter-Glo 2.0), NHDF; format: cell-based; conditions: 10 µM, versus untreated control; mean ± SD
Experimental: as §3

[1] = Plasmodium falciparum, D6, Erythrocyte
[2] = Plasmodium falciparum, W2, Erythrocyte

## CCOC(=O)[C@H](Cc1ccccc1)NP(=O)(CCOCC(OCCOCP(=O)(N[C@@H](Cc1ccccc1)C(=O)OCC)N[C@@H](Cc1ccccc1)C(=O)OCC)n1cnc2c(=O)[nH]cnc21)N[C@@H](Cc1ccccc1)C(=O)OCC (stereo partly drawn) [19a, Tetra‐(L‐phenylalaninate ethyl ester) prodrug of (2‐(2‐(hypoxanthin‐9‐yl)‐2‐(2‐(phosphonatomethoxy)ethoxy)ethoxy)ethyl)phosphonic acid]
P. falciparum D6
  IC50: 2.1 ± 0.2 µM
P. falciparum D6; [1]
  IC50: 2 µM
P. falciparum W2
  IC50: 3.4 ± 1.1 µM
P. falciparum W2; [2]
  IC50: 3 µM
HL-60
  Viability HL-60: 112 ± 1 % control
CCRF-CEM
  Viability CCRF-CEM: 106 ± 1 % control
HeLa
  Viability HeLa: 105 ± 1 % control
HepG2
  Viability HepG2: 116 ± 1 % control
NHDF
  Viability NHDF: 114 ± 5 % control

## CCOC(=O)[C@H](Cc1ccccc1)NP(=O)(COCCC(OCCCO)n1ncc2c(=O)[nH]cnc21)N[C@@H](Cc1ccccc1)C(=O)OCC (stereo partly drawn) [21g, Bis‐(L‐phenylalaninateethyl ester) prodrug of ((3‐(3‐hydroxypropoxy)‐3‐(4‐oxo‐4,5‐dihydro‐1H‐pyrazolo[3,4‐d]pyrimidin‐1‐yl)propoxy)methyl) phosphonic acid]
P. falciparum D6; [1]
  IC50: 11 ± 1 µM
P. falciparum W2; [2]
  IC50: 15 ± 2 µM
HL-60
  Viability HL-60: 107 ± 2 % control
CCRF-CEM
  Viability CCRF-CEM: 105 ± 2 % control
HeLa
  Viability HeLa: 106 ± 2 % control
HepG2
  Viability HepG2: 111 ± 6 % control
NHDF
  Viability NHDF: 114 ± 3 % control

## CCOC(=O)[C@H](Cc1ccccc1)NP(=O)(COCCC(OCCCO)n1cnc2c(=O)[nH]c(N)nc21)N[C@@H](Cc1ccccc1)C(=O)OCC (stereo partly drawn) [21f, Bis‐(L‐phenylalaninate ethyl ester) prodrug of ((3‐(3‐hydroxypropoxy)‐3‐(guanin‐9‐yl)propoxy)methyl) phosphonic acid]
P. falciparum D6; [1]
  IC50: 13 ± 2 µM
P. falciparum W2; [2]
  IC50: 26 ± 14 µM
HL-60
  Viability HL-60: 105 ± 2 % control
CCRF-CEM
  Viability CCRF-CEM: 103 ± 1 % control
HeLa
  Viability HeLa: 106 ± 1 % control
HepG2
  Viability HepG2: 110 ± 2 % control
NHDF
  Viability NHDF: 116 ± 4 % control

## CCOC(=O)[C@H](Cc1ccccc1)NP(=O)(CCOCC(OCCO)n1cnc2c(=O)[nH]c(N)nc21)N[C@@H](Cc1ccccc1)C(=O)OCC (stereo partly drawn) [21d, Bis‐(L‐phenylalaninate ethyl ester) prodrug of (2‐(2‐(guanin‐9‐yl)‐2‐(2‐hydroxyethoxy)ethoxy)ethyl) phosphonic acid]
P. falciparum D6; [1]
  IC50: 64 ± 6 µM
P. falciparum W2; [2]
  IC50: 39 ± 5 µM
HL-60
  Viability HL-60: 105 ± 1 % control
CCRF-CEM
  Viability CCRF-CEM: 99 ± 4 % control
HeLa
  Viability HeLa: 100 ± 2 % control
HepG2
  Viability HepG2: 107 ± 2 % control
NHDF
  Viability NHDF: 112 ± 1 % control
